Details: 343.15 K, Liquid, Vibrating tube method

CCCCCC(=O)OCC(COC(=O)CCCCC)(COC(=O)CCCCC)COC(=O)CCCCC [pentaerythritol tetrahexanoate]
Details	mass density [kg/m3]
21939 kPa	973
21970 kPa	972.9
21994 kPa	973
22600 kPa	973.4
22626 kPa	973.4
22658 kPa	973.4
22686 kPa	973.3
22712 kPa	973.5
22744 kPa	973.6
22771 kPa	973.5
22798 kPa	973.5
22831 kPa	973.5
22858 kPa	973.7
22886 kPa	973.6
22919 kPa	973.6
22946 kPa	973.6
22973 kPa	973.7
23356 kPa	974
23808 kPa	974.2
23832 kPa	974.2
23863 kPa	974.2
23889 kPa	974.2
24332 kPa	974.5
24359 kPa	974.5
24391 kPa	974.4
24418 kPa	974.6
24449 kPa	974.6
24476 kPa	974.6
24504 kPa	974.6
24536 kPa	974.6
24563 kPa	974.7
24590 kPa	974.6
24623 kPa	974.7
24651 kPa	974.6
24678 kPa	974.6
24711 kPa	974.8
24738 kPa	974.7
24766 kPa	974.8
24799 kPa	974.9
24827 kPa	974.8
24855 kPa	974.9
24888 kPa	974.9
24917 kPa	975
24945 kPa	974.9
24979 kPa	974.9
25008 kPa	974.9
25036 kPa	975
25070 kPa	975
25099 kPa	975.2
25128 kPa	975
25162 kPa	975.1
25191 kPa	975.2
25220 kPa	975.2
25249 kPa	975.1
25284 kPa	975.1
25313 kPa	975.2
25349 kPa	975.2
25379 kPa	975.3
25408 kPa	975.2
25438 kPa	975.4
25473 kPa	975.3
25502 kPa	975.2
25532 kPa	975.2
25562 kPa	975.2
25598 kPa	975.4
25628 kPa	975.4
25657 kPa	975.4
25693 kPa	975.4
25724 kPa	975.5
26078 kPa	975.6
26108 kPa	975.7
26134 kPa	975.6
26161 kPa	975.8
26188 kPa	975.7
26213 kPa	975.8
26245 kPa	975.8
26271 kPa	975.7
26298 kPa	975.9
26330 kPa	975.7
26356 kPa	975.9
26387 kPa	976
26413 kPa	975.9
26439 kPa	976
26471 kPa	975.9
26498 kPa	975.9
26524 kPa	976
26552 kPa	975.9
26585 kPa	976
26612 kPa	976.1
26644 kPa	976
26671 kPa	976.1
26873 kPa	976.3
26906 kPa	976.2
26934 kPa	976.2
26962 kPa	976.3
26990 kPa	976.1
27023 kPa	976.3
27051 kPa	976.1
27079 kPa	976.3
27113 kPa	976.4
27141 kPa	976.3
27174 kPa	976.3
27202 kPa	976.4
27230 kPa	976.3
27264 kPa	976.5
27293 kPa	976.4
27322 kPa	976.5
27351 kPa	976.4
27385 kPa	976.5
27414 kPa	976.6
27449 kPa	976.6
27478 kPa	976.5
27508 kPa	976.5
27537 kPa	976.6
27572 kPa	976.6
28317 kPa	977.1
28347 kPa	977.2
28372 kPa	977.1
28396 kPa	977.2
28427 kPa	977.3
28453 kPa	977.2
28479 kPa	977.2
28503 kPa	977.2
28528 kPa	977.2
28558 kPa	977.3
28583 kPa	977.4
29079 kPa	977.5
29105 kPa	977.6
29132 kPa	977.6
29164 kPa	977.6
29190 kPa	977.6
29216 kPa	977.6
29248 kPa	977.7
29274 kPa	977.7
29301 kPa	977.7
29333 kPa	977.8
29446 kPa	977.9
29473 kPa	977.8
29506 kPa	977.8
29763 kPa	978.1
29796 kPa	978.2
29852 kPa	978.1
29886 kPa	978.2
29914 kPa	978.1
